Experimental findings from US20110319484A1, “NEUROPROTECTIVE COMPOUNDS” (Parque Tecnologico de Ciencias de la Salud, priority 2009, published 2011) are described below.

Assay [1] relates to human neuroblastoma SK-N-MC cells. The assay can be described thus: Protection against neuronal death induced by apoptosis (camptothecin), WST-1 test. The format is cell-based. The conditions noted are these: camptothecin 20 nM, 22 h, at 10 μg/ml, protection at 4, 10 and 40 μg/ml. The protocol: (§1) To that end, an assay was performed on human neuroblastoma SK-N-MC cells in culture from the ATCC (HTB-10); in all cases strict rules of sterility were followed and the manipulation was performed in class II biological safety cabinets following European standard EN 12469. The cells were maintained in MEM culture medium supplemented with 1 mM sodium pyruvate, 2 mM L-glutamine, 0.1 mM non-essential amino acids, 0.05 mg/ml gentamicin and 10% fetal bovine serum.
The inhibition caused by the compound (1S,3R,7S,8S,8aR)-1,2,3,7,8,8a-hexahydro-3,7-dimethyl-8-[2-[(2R,4R)-tetrahydro-4-hydroxy-6-oxo-2H-pyran-2-yl]ethyl-1-naphthalenyl 2-methylpropanoate (NST0004) of cell death caused by treatment with camptothecin (Campt), which inhibits the topoisomerase I enzyme by preventing duplication of the DNA, which triggers apoptic cell death, was analyzed. […]
The cells were incubated (at 37° C. and 5% CO2) with these treatments for 22 h, after which time the WST-1 reagent (Roche) was added. […] The metabolically active (live) cells reduce tetrazolium salt to formazan by means of the succinate-tetrazolium reductase system (of the mitochondrial respiratory chain) and the formazan which is formed can be detected colorimetrically since it has an absorbance of 440 nm. The reading was taken in a plate reader at 440 nm 2 hours after adding the reagent. […]

The test system is the same in assay [2]. The assay can be described thus: Protection against neuronal death induced by endoplasmic reticulum stress (tunicamycin), WST-1 test. The format is cell-based. The note with it: tunicamycin 20 μg/ml, 22 h, at 20 μg/ml, protection at 4, 10, 20 and 40 μg/ml. As for the experimental part: as §1
The inhibition caused by the compound (1S,3R,7S,8S,8aR)-1,2,3,7,8,8a-hexahydro-3,7-dimethyl-8-[2-[(2R,4R)-tetrahydro-4-hydroxy-6-oxo-2H-pyran-2-yl]ethyl-1-naphthalenyl 2,2-dimethylpropanoate (NST0005) of cell death caused by treatment with tunicamycin (Tm), which generates endoplasmic reticulum stress by inhibition of N-glycosylation of proteins, which triggers cell death, was analyzed. […]
The cells were incubated (at 37° C. and 5% CO2) with these treatments for 22 h, after which time the WST-1 reagent (Roche) was added. The WST-1 Test, as has been previously mentioned, is based on the measurement of the metabolic activity; the metabolically active (live) cells reduce tetrazolium salt to formazan by means of the succinate-tetrazolium reductase system (of the mitochondrial respiratory chain) and the formazan which is formed can be detected colorimetrically since it has an absorbance of 440 nm. […]

Assay [3] concerns cerebral cortex of mice. The assay can be described thus: Neuroprotection in the cerebral cortex (lateral entorhinal and amygdaloid nuclei) of mice after kainate. The format is in vivo, mice (FVB/NHan). The conditions noted are these: KA 25 mg/kg i.p., NST0005 50 mg/kg i.p. daily. As for the experimental part:
All the animals included during the experimental process were 12-week old males of the FVB/NHan strain. The experiments were carried out strictly following the Guidance on the Operation of Animals (Scientific Procedures, Act. 1986). The animals had their respective quarantine period and were treated with maximum precaution to minimize possible contaminations for inoculations and handling.
Sixteen animals were used in this assay and the treatments were all carried out by intraperitoneal (i.p.) route with a volume of 100 μl, according to the following regimens: • i) PBS+PBS+PBS regimen: 4 animals were initially treated with PBS with a daily dose for 2 days, on the second day the animals were inoculated with a new dose of PBS and for the next 7 days with a daily dose of PBS. • ii) PBS+KA+PBS regimen: 6 animals were initially treated with PBS with a daily dose for 2 days, on the second day the animals were inoculated with a dose of kainate at 25 mg/kg and for the next 7 days with a daily dose of PBS. • iii) NST0005+KA+NST0005 regimen: 6 animals were initially treated with NST0005 with a daily dose of 50 mg/kg for 2 days, on the second day the animals were inoculated with a dose of kainate at 25 mg/kg and for the next 7 days with a daily dose of NST0005 at 50 mg/kg.
Once the treatment period of 7 days ended, the animals were sacrificed and the brains were dissected. […]

Consider `CC(C)C(=O)O[C@H]1C[C@@H](C)C=C2C=C[C@H](C)[C@H](CC[C@@H]3C[C@@H](O)CC(=O)O3)[C@H]21` [NST0004], for which the “maximum reduction of the percentage of cell death relating to death caused by Camptothecin” value in assay [1] is listed as 43%.

As for `C[C@H]1C=C2C=C[C@H](C)[C@H](CC[C@@H]3C[C@@H](O)CC(=O)O3)[C@H]2[C@@H](OC(=O)C(C)(C)C)C1` [NST0005], the “maximum reduction of the percentage of cell death relating to death caused by Tunicamycin” value in assay [2] turned out to be 38%. Further, in assay [3], the “neuritic dystrophy in the cerebral cortex (MAP2)” value is “significantly reduces neuronal damage by neuritic dystrophy” and the “reactive astrogliosis in the cerebral cortex (GFAP)” value is recorded as “significantly prevents reactive astrogliosis”.
